Legend:
[1] = detection of avermectin in mouse serum by competitive liquid phase RIA after intraperitoneal injection; type: in vivo, BALB/c mice; conditions: for Concentration per tube: serum at 1:10 dilution
From the text: Monoclonal antibody specifically reactive with a common epitope or common epitopes contained within the compounds of the avermectin family and derivatives thereof are used serologically to identify and quantitate avermectins, including ivermectin, in animal body fluids and cell-free extracts. Body fluids include, but are not limited to, blood, serum, plasma, milk, urine, cerebrospinal fluid and the like. Cell-free extracts as used herein are defined as the fluids derived from disrupted cells. The avermectins can be identified and the concentration determined by a variety of immunoassays or serological assays which include, but are not limited to: immunoradiometric assays, employing labelled antibodies, Miles and Hales, Nature 219: 186 […] or a sandwich variant according to Addison and Hales, Hormone. Meta. Res. 3: 59 (1971); enzyme immunoassays, employing competitive assays with antigen-enzyme conjugates according to the method of Van Weeman and Schours, F.E.B.S. Lett. 15: 232 (1971) or enzyme-labelled antibody assays according to the procedure of Envall and Perlman, Immunochem. 8: 871 (1971) or a variant of the enzyme-labelled antibody assay which employs detection by a second antibody according to the process of Hammarstrom et al., Proc. Natl. Acad. Sci. USA 72: 1528 (1975) or non-competitive sandwich (ELISA) methods, see Nakamura et al., in Handbood of Experimental Immunology, Vol. 1, Immunochemistry, D. M. Weir, ed. 4th Edition (1986), Blackwell Scientific Publications, Oxford, pp. 27.1-27.20; or any other assay which will determine the concentration or presence of avermectin. The preferred assay is a competitive inhibition liquid phase radioimmuno assay (RIA). The avermectin concentration in animal body fluids is determined by diluting the fluid in an appropriate assay buffer. An appropriate assay buffer may include, but is not limited to, buffered saline, phosphate buffer, phosphate buffered saline, Dulbecco's phosphate buffered saline, Dulbecco's calcium-and-magnesium-free buffered saline and Tris buffer containing about 0.1 % CHAPSO with Tris-CHAPSO being preferred. The labelled antigen (³H-Avm) is diluted to a concentration of about 200 pg to about 700 pg, with about 500 pg being preferred, and contacted with an anti-avermectin monoclonal antibody at a concentration that will bind about 25% to about 75% of the labelled antigen, with about 50% being preferred. To the labelled antigen-antibody mixture is added an appropriate concentration or dilution of the unknown or sample containing avermectin or the standard containing a known amount of avermectin. The reactants are incubated at about 4° C to about 30° C, with about 25° C being preferred, for about 30 minutes to about 4 h, with about 2.5 h being preferred. All dilutions are made in the assay buffer and all determinations are made in duplicate. Non-antibody-bound radioactive avermectin is removed from the reaction mixture by chromatographic, precipitation, immunoprecipitation or adsorption techniques with adsorption of the unbound antigen onto dextran-coated activated charcoal being preferred. The dextran-coated charcoal is prepared by suspending activated charcoal, USP, at about 3% (w/v) in about 10 mM phosphate buffer, pH about 7.5, containing about 0.25% (w/v) dextran, about 60,000 to about 90,000 average mol. wt., with about 70,000 average mol. wt. being preferred. The dextran-coated activated charcoal is washed and resuspended in assay buffer and stored at a concentration of about 3%. About 1 ml of the dextran-coated activated charcoal suspension (dilution predetermined) is added to each sample and the samples are incubated for about 10 min at about 4° C. The charcoal is pelleted by centrifugation at about 3500 rpm for about 15 min. The supernatant quid is collected and the radioactivity counted in a liquid scintillation counter. […]

[2] = test system: monoclonal antibody 3A6-1 Mab; test: competitive inhibition liquid phase RIA (monoclonal antibody specificity); type: binding, mouse; conditions: 50 ng inhibitor, 500 pg 3H-Avm B1a; for % ^3H-Tritium bound: antibody amount binding about 50% of label (Mab alone: 42)
Protocol: (§1) Specificity is determined by a competitive inhibition liquid phase RIA. The specificity is determined by contacting a known amount of labelled antigen (³H-Avm B1a) with constant amounts of other avermectins or ivermectin and then contacting this mixture with a constant amount of antibody specific for the labelled antigen. The concentration of antibody is an amount that is sufficient to bind about 50% of the labelled antigen employed in the assay.
as §1, with “B1a), 500 pg” for “B1a)”

Compound | Concentration per tube ([1]; 15 min after 10 mg per Kg IP in sesame oil) [ng] | Concentration per tube ([1]; 30 min after 10 mg per Kg IP in sesame oil) [ng] | Concentration per tube ([1]; 60 min after 10 mg per Kg IP in sesame oil) [ng] | concentration at 0.25 h ([1]; mouse, serum, 10 mg/kg, 15 min after 10 mg per Kg IP in sesame oil, corrected for volume (50 µl) and dilution (1:10)) [ng/mL] | concentration at 0.5 h ([1]; mouse, serum, 10 mg/kg, 30 min after 10 mg per Kg IP in sesame oil, corrected for volume (50 µl) and dilution (1:10)) [ng/mL] | concentration at 1 h ([1]; mouse, serum, 10 mg/kg, 60 min after 10 mg per Kg IP in sesame oil, corrected for volume (50 µl) and dilution (1:10)) [ng/mL] | % Inhibition [2] [%] | % ^3H-Tritium bound [2] [%]
CCC(C)[C@H]1O[C@]2(C=C[C@@H]1C)C[C@@H]1C[C@@H](C/C=C(\C)[C@@H](O[C@H]3C[C@H](OC)[C@@H](O[C@H]4C[C@H](OC)[C@@H](O)[C@H](C)O4)[C@H](C)O3)[C@@H](C)/C=C/C=C3\CO[C@@H]4[C@H](O)C(C)=C[C@@H](C(=O)O1)[C@]34O)O2 (stereo partly drawn) [B1a, avermectin B1a] | 2.4 | 13 | 42 | 480 | 2600 | 8400 | 53 | 20
22, 23-dihydroavermectin B₁ [Ivm] | – | – | – | – | – | – | 63 | 16
CC[C@H](C)[C@H]1O[C@@]2(C[C@@H]3C[C@@H](C/C=C(\C)[C@@H](O[C@H]4C[C@H](OC)[C@@H](O[C@H]5C[C@H](OC)[C@@H](O)[C@H](C)O5)[C@H](C)O4)[C@@H](C)/C=C/C=C4\CO[C@@H]5[C@H](O)C(C)=C[C@@H](C(=O)O3)[C@]45O)O2)C[C@H](O)[C@@H]1C [B2a, avermectin B2a] | – | – | – | – | – | – | 58 | 18

Source: patent EP0450936A1, “Monoclonal antibody to avermectins” (MERCK & CO. INC., priority 1990, dated 1991)
